In US12083159B2, “Antibacterial compositions, methods of making and use thereof” (MOREHOUSE SCHOOL OF MEDICINE, priority 2011, dated 2024):
Where no end group is shown, it is not given here.

Columns and labels:
Escherichia coli 042 = assay: Biofilm formation, crystal violet assay (microtiter plate); type: cell-based; conditions: FIG. 13
Description: (§1) Biofilm Formation and Measurement Procedures by Crystal Violet Assay: (1) incubate bacteria in agar plate; (2) single colony was transferred to fresh medium and incubated for overnight; (3) cultures were diluted 1:50 into fresh medium and (4) was dispensed into 96 well plate and incubated for overnight; (5) detection of bacteria growth ability, the OD at 600 nm was determined by the SpectraMax M5 Microplate Reader (6) washed by 1× PBS; (7) stained with crystal violet; (8) detection of biofilm, the OD at 570 nm was determined by the SpectraMax M5 Microplate Reader.
(§2) SMR(mut)-CPP (tat) peptide was used as a negative control.
(§3) Bacterial strains evaluated for biofilm formation included (1) the Gram-negative Vibrio cholerae C7258 strain (A. J. Silva et al., J. Bact., 190 (22):7335-7345 (November 2008); J. C. Ayala et al., Genomics data 5, pp. 147-150, (2015)); (2) the Gram-negative Escherichia coli 042 strain (Taxonomy ID: 216592, R. R. Chaudhuri et al, PLOS One, 5(1):e8801 (Jan. 20, 2010), and (3) the Gram-positive Staphylococcus aureus SCO1 strain (ATCC 12228, S. Sarkar et al., PLos One, 10(2):e0117613 (2015). The Vibrio cholerae, Escherichia coli and Staphylococcus aureus strains and plasmids are listed in the references cited in Table 2.
(§4) The Vibrio cholerae, Escherichia coli and Staphylococcus aureus strains were treated with SMRwt-CPP and SMRmut-CPP peptides and screened for inhibition of their biofilm-forming capacity using microtiter plate (MtP) methods (FIGS. 12-14 (crystal violet assays)) and confocal microscopy (FIGS. 15-16 (intensity count on confocal images).

[1] = test system: Staphylococcus aureus SCO1; assay: as above; type: cell-based; conditions: FIG. 14
Description: as §1, §2, §3, §4

Vibrio cholerae C7258 = assay: as above; type: cell-based; conditions: FIG. 12
Description: as §1, §2, §3, §4

Jurkat = type: cell-based; conditions: Jurkat cultures, 12 days
Description: Jurkat cultures seeded at low density were grown in the presence of the SMRwt or the SMRmut peptide. A small but consistent aliquot was taken from each culture daily over a period of 12 days. The cells in the aliquot were counted and the cells/ml in the culture calculated to determine culture growth. The data are shown with time on the x-axis and cell number on the y-axis.
Neither peptide cause cell death (data not shown). Using immunoprecipitation with the SMRwt peptide as bait to screen for cellular factors interacting with the SMR domain, a cellular protein Mortalin was co-immunoprecipitated with the SMRwt peptide (FIG. 3). Mortalin, also known as Glucose-regulated protein 75 (GRP75) and Peptide-binding protein 74, is a 679 amino acid long, uninducible member of the heat shock protein 70 family. It has a high degree of identity with other members of the Hsp70 family, including Escherichia coli DnaK.

[2] = test system: Staphylococcus aureus SCO1; assay: Biofilm formation, SYTO9 confocal microscopy, ImageJ; type: cell-based; conditions: 24 h static, 18, 36, 72 nM, FIG. 15
Description: (§5) Strain SCO1 was grown in LB medium at 37° C. to stationary phase. The cultures were diluted 100 fords in fresh medium and biofilm allowed to develop under static conditions for 24 h in Mat Tek glass bottom culture plates. Biofilm formation was stained with SYTO9 and observed by Leico confocal microscopy and three-dimensional (3D) views of S. aureus and measured using the ImageJ. (A) Confocal images, (B) 3D images, and (C) bar graphs showing the inhibit effect of biofilm formation. Error bars represent the mean±SD of two independent experiments. Asterisks (*) indicate significant differences (p≤0.05) relative to negative control *p<0.01 (18 nM), **p<0.001 (36 nM, 72 nM) in SMR-CPP peptide treatment. Each value represents the mean of three independent experiments. Error bars denote the standard deviation (STDEV).
as §4

V. cholerae C7258 = assay: as above; type: cell-based, Vibrio cholerae; conditions: 24 h static, 18, 36, 72 nM, FIG. 16
Description: as §5, with “V. cholerae C7258” for “SCO1”, “30°” for “37°”, “V. cholerae” for “S. aureus”, “vs 18” for “(18 nM), **p<0.001 (36”, “nM, 36 nM and” for “nM,”, “nM SMRwt-CPP” for “nM) in SMR-CPP”
as §4

Sequence: AGFPVAAAGFPVGRKKRRQRRRPPQ [SMRmut-CPP, reference compound]
- inhibition of biofilm formation (Escherichia coli 042): no significant effect
- inhibition of biofilm formation [1]: no significant effect
- inhibition of biofilm formation (Vibrio cholerae C7258): no significant effect

Sequence: VGFPVAAVGFPVDYKDDDDK [SMRwt]
- effect on eukaryotic cell growth (Jurkat): no effect on eukaryotic cell growth

Sequence: AGFPVAAAGFPVDYKDDDDK [SMRmut, reference compound]
- effect on eukaryotic cell growth (Jurkat): no effect on eukaryotic cell growth

Sequence: VGFPVAAVGFPVGRKKRRQRRRPPQ [SMRwt-CPP]
- inhibition of biofilm formation (Escherichia coli 042): dose-response inhibition of biofilm formation
- inhibition of biofilm formation [1]: dose-response inhibition of biofilm formation
- inhibition of biofilm formation (Vibrio cholerae C7258): dose-response inhibition of biofilm formation
- inhibition of biofilm formation [2]: dose-response inhibition of biofilm formation
- inhibition of biofilm formation (V. cholerae C7258): dose-response inhibition of biofilm formation
